Measured values reported in PMC8041284, “Tunable Methacrylamides for Covalent Ligand Directed Release Chemistry” (Journal of the American Chemical Society, 2021).

target: BTK (Homo sapiens, UniProt Q06187); assay: biochemical; conditions: read-out: BTK inhibition (%)
Sequence (Q06187 402-655 limits assumed): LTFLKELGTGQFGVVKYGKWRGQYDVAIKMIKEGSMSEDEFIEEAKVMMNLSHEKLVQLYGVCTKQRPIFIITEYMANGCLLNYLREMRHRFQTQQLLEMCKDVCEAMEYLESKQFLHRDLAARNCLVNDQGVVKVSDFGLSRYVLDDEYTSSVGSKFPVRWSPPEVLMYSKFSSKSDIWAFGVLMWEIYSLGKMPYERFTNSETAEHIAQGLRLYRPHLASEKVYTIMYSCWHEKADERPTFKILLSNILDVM

SMILES | inhibition at 10 µM [%]
Oc1ccc(-c2c(-c3ccccc3)nn3c(C(F)(F)F)cc(C(F)(F)F)nc23)cc1 [PCM-0216048] | 27.8
NC(=O)CN1CC(c2ccccc2)CC1=O (centres unmarked) [PCM-0216067] | 10
O=C(C[S+]([O-])C(c1ccccc1)c1ccccc1)NO (centres unmarked) [PCM-0216068] | -2.3
C[C@]12CC[C@H]3[C@@H](CCC4=CC(=O)C=C[C@@]43C)[C@@H]1CC[C@@H]2O [PCM-0216069] | -13.1
Cc1c(N[C@@H](c2nnc(-c3ccc(C#N)cc3)o2)[C@H](C)O)ccc(C#N)c1Cl [PCM-0216075] | 17.8
CC1(C)C(=O)N(c2ccc(C#N)c(C(F)(F)F)c2)C(=O)N1CCCCO [PCM-0216095] | 11.6

same assay, conditions: read-out: BTK inhibition (%), 0.75 uM BTK, […] probe 3l, 15 min preincubation

SMILES | inhibition at 10 µM [%]
CN(C)CCC=C1c2ccccc2C(C)(C)c2ccccc21 [PCM-0216044] | -10.8
COc1ccc(CCNCC(O)COc2cccc(C)c2)cc1OC (centres unmarked) [PCM-0216046] | -4.6
O=C(O)Cc1ccc2c(c1)C(=O)c1ccccc1CO2 [PCM-0216047] | -5.5
Cc1ncc(NC(=O)c2cccc(C(F)(F)F)c2)cc1-c1cnc(OC2CCOCC2)c(N2CCOCC2)c1 [PCM-0216049] | -13.1
O=C(Oc1coc(CSc2ncccn2)cc1=O)c1ccc([N+](=O)[O-])cc1 [PCM-0216050] | -3.9
CC(C)=CCC/C(C)=C/CC/C(C)=C/CC/C(C)=C/CC1=C(C)C(=O)c2ccccc2C1=O [PCM-0216051] | 2.3
CC(CCc1ccccc1)NCC(=O)c1ccc(O)c(C(N)=O)c1 (centres unmarked) [PCM-0216052] | -18.5
Cc1oc2nc3c(c(NC(=O)CN4CCCC4=O)c2c1C)CCCC3 [PCM-0216053] | 12.4
COc1ccc2cc(C(=O)O)ccc2c1 [PCM-0216054] | -9.3
C[C@@]1(F)[C@H](O)[C@@H](CO)O[C@H]1n1ccc(=O)[nH]c1=O [PCM-0216055] | -20
COC(=O)N[C@H](C(=O)N1CCC[C@H]1C(=O)Nc1ccc([C@@H]2CC[C@@H](c3ccc(NC(=O)[C@@H]4CCCN4C(=O)[C@@H](NC(=O)OC)C(C)C)cc3)N2c2ccc(C(C)(C)C)cc2)cc1)C(C)C [PCM-0216056] | 18.5
Cc1cnc(C(=O)N[C@H]2CCCCC/C=C\[C@@H]3C[C@@]3(C(=O)NS(=O)(=O)C3CC3)NC(=O)[C@@H]3C[C@@H](Oc4nc5ccccc5c5ccccc45)CN3C2=O)cn1 [PCM-0216057] | 53.3
CC(C)(N)C(=O)N[C@H](COCc1ccccc1)C(=O)N1CCC2(CC1)CN(S(C)(=O)=O)c1ccccc12 [PCM-0216059] | -11.7
COc1cc2c(c(OC)c1OC)-c1c(cc3c(c1OC)OCO3)C[C@H](C)[C@](C)(O)[C@H]2OC(=O)c1ccccc1 [PCM-0216060] | 3.9
C[n+]1c2ccccc2nc2ccccc21 [PCM-0216061] | 64.9
CC(=O)OCC1=C(C(=O)O)N2C(=O)[C@@H](NC(=O)CSC(=NC(C)C)NC(C)C)[C@H]2SC1 [PCM-0216063] | 4.7
O=C1[C@H]2CCCC[C@H]2C(=O)N1CCCCN1CCN(c2nsc3ccccc23)CC1 [PCM-0216064] | -9.3
COC(=O)c1cc(OC)c2c(c1-c1c(C(=O)OC)cc(OC)c3c1OCO3)OCO2 [PCM-0216065] | 2.8
CC[C@H]1OC(=O)[C@H](C)[C@@H](O[C@H]2C[C@@](C)(OC)[C@@H](O)[C@H](C)O2)[C@H](C)[C@@H](O[C@@H]2O[C@H](C)C[C@H](N(C)C)[C@H]2O)[C@](C)(O)C[C@@H](C)C(=O)[C@H](C)[C@@H](O)[C@]1(C)O [PCM-0216070] | 10
N=c1cc(N2CCCCC2)nc(N)n1OS(=O)(=O)O [PCM-0216071] | -9.3
CCOC(=O)N1CCN(c2ccc(OC[C@H]3CO[C@](Cn4ccnc4)(c4ccc(Cl)cc4Cl)O3)cc2)CC1 [PCM-0216072] | 8.5
COc1cccc(/C=N/N(C(=O)C(F)(F)F)c2ccc(C)cc2C)c1 [PCM-0216073] | 13.9
FC(F)(F)Oc1ccc(-c2ccc3nnc(C(F)(F)F)n3c2)cc1 [PCM-0216074] | 7.7
Cc1cc(-c2cc(C)c(NCCCS(=O)(=O)O)c(C)c2)cc(C)c1N [PCM-0216076] | 7.7
COc1ccc(C(=O)C(=O)c2ccc(OC)cc2)cc1 [PCM-0216078] | 24.7

SMILES | inhibition at 10 µM [%]
O=c1oc2cc(O)ccc2c2ccc(O)cc12 [PCM-0216079] | 32.4
O=C1C(=Cc2cccnc2)C(=O)c2ccccc21 [PCM-0216080] | 20.8
COc1c(-c2ccc3cc(NS(C)(=O)=O)ccc3c2)cc(-n2ccc(=O)[nH]c2=O)cc1C(C)(C)C [PCM-0216081] | 73.4
Nc1cc(N)c(N)cc1N [PCM-0216082] | 31.7
CO/N=C(\C(=O)N[C@@H]1C(=O)N2C(C(=O)[O-])=C(C[n+]3cccc4c3CCCC4)CS[C@H]12)c1csc(N)n1 [PCM-0216083] | 9.3
C/C(=C(\CCOC(=O)c1ccccc1)SC(=O)c1ccccc1)N(C=O)Cc1cnc(C)nc1N [PCM-0216084] | 4.6
O=C(c1cccc(Br)c1)N1CCC(N2CCCC2)CC1 [PCM-0216085] | -17.8
CC[C@H]1OC(=O)[C@@](C)(F)C(=O)[C@H](C)[C@@H](O[C@@H]2O[C@H](C)C[C@H](N(C)C)[C@H]2O)[C@](C)(OC)C[C@@H](C)C(=O)[C@H](C)[C@H]2N(CCCCn3cc(-c4cccc(N)c4)nn3)C(=O)O[C@]12C [PCM-0216086] | -22.1
O=C1C(=Cc2ccncc2)CCCC1=Cc1ccncc1 [PCM-0216087] | -4.1
CCCCCCOc1cc(C)c(O)c(C)c1C [PCM-0216088] | -25.5
COc1ccc(-c2cc(=O)c3c(O)cc(O)cc3o2)cc1 [PCM-0216090] | 16.6
CC(C)n1c(=O)n(C)c2cnc3cc(F)c(-c4ccc(OCCCN5CCCCC5)nc4)cc3c21 [PCM-0216091] | -13.9
C[C@H](N=C(NC#N)Nc1cccc2ncccc12)c1ccccc1 [PCM-0216092] | -13.1
CCCCOC(=O)c1ccccc1Nc1cccc(C(F)(F)F)c1 [PCM-0216094] | 21.4
Cc1cc(NS(=O)(=O)c2ccc(N)cc2)nc(C)n1 [PCM-0216097] | 11
O=C1C(N(CO)C(=O)NCO)N(CO)C(=O)N1CO (centres unmarked) [PCM-0216098] | -5.4
CC1(C)S[C@@H]2[C@H](NC(=O)C(c3ccccc3)S(=O)(=O)O)C(=O)N2[C@H]1C(=O)O (some centres unmarked) [PCM-0216099] | 7.7
O=C1C[C@@H]2[C@@H](CO)[C@H](O)C[C@@H]2O1 [PCM-0216100] | -8.5
O=C(CO)[C@@H](O)[C@H](O)[C@@H](O)CO [PCM-0216101] | -4.3
CCCCCC1=C(C)CCC1=O [PCM-0216102] | -16.2
COc1cc(C(=O)O)ccc1O [PCM-0216103] | 3.1
CC(=O)CCc1ccc(OC(C)=O)cc1 [PCM-0216104] | -10.8
O=C(O)c1cn(C2CC2)c2cc(Cl)c(F)cc2c1=O [PCM-0216105] | 7.7
CCCCCCC(O)C(=O)O (centres unmarked) [PCM-0216106] | -10
C[Si](C)(C)N=C(O[Si](C)(C)C)C(F)(F)F [PCM-0216107] | -6.9

SMILES | inhibition at 10 µM [%]
Fc1ccc(Cn2c(Cl)nc3ccccc32)cc1 [PCM-0216108] | -52.5
COc1cccc(C(N)=O)c1 [PCM-0216109] | 2.3
Nc1ccc(O)cc1 [PCM-0216110] | 82.6
O=C1CCN(c2ccccc2)N1 [PCM-0216111] | -12.4
CC(C)(C)C(=O)N1N=CC[C@H]1c1ccccc1 [PCM-0216112] | 13.8
O=C(O)CC(C(=O)O)n1c(O)c(C2=c3cc(Br)ccc3=NC2=O)sc1=S (centres unmarked) [PCM-0216114] | 3.1
COc1cc2c(Oc3ccc4[nH]c(C)cc4c3F)ccnc2cc1OCC1(N)CC1 [PCM-0216115] | 39.4
Cn1cc(-c2cc(Oc3cc(F)c(NC(=O)C4(C(=O)Nc5ccccc5)CC4)cc3F)ccn2)cn1 [PCM-0216116] | 88.8
COCCNc1cc(NC(=O)N2CCCc3cc(CN4CCN(C)CC4=O)c(C=O)nc32)ncc1C#N [PCM-0216117] | -16.2
COC(=O)CC1CC(c2ccc(O)cc2)=NO1 (centres unmarked) [PCM-0216118] | -16.6
O=Cc1ccc(CO)o1 [PCM-0216119] | -2.3
C/C=C1\C(=O)C[C@H]2[C@@H]3CCC4=CC(=O)CC[C@]4(C)[C@H]3CC[C@]12C [PCM-0216120] | -1.6
C=C1C[C@@]23CC[C@H]4[C@@](C)(CCC[C@@]4(C)C(=O)O[C@@H]4O[C@H](CO)[C@@H](O)[C@H](O)[C@H]4O)[C@@H]2CC[C@]1(O[C@@H]1O[C@H](CO)[C@@H](O)[C@H](O)[C@H]1O[C@@H]1O[C@H](CO)[C@@H](O)[C@H](O)[C@H]1O)C3 [PCM-0216121] | -27.8
Cc1onc(-c2c(F)cccc2Cl)c1C(=O)N[C@@H]1C(=O)N2[C@@H]1SC(C)(C)[C@@H]2C(=O)O [PCM-0216122] | -1.6
CC(C)c1cc2c(cc1S(=O)(=O)O)[C@@]1(C)CCC[C@@](C)(C(=O)O)[C@@H]1CC2 [PCM-0216123] | 3.9
CO/N=C(\C(=O)N[C@@H]1C(=O)N2C(C(=O)OCOC(=O)C(C)(C)C)=C(C)CS[C@H]12)c1csc(N)n1 [PCM-0216124] | -4.7
N#Cc1c(N)nc(NC2CC2)nc1N [PCM-0216125] | 14
COc1ccc2c(c1OC)CN1CCc3cc4c(cc3C1C2)OCO4 (centres unmarked) [PCM-0216126] | 13.1
Cc1cc(S(=O)(=O)O)c2c(C)ccc(C(C)C)cc1-2 [PCM-0216127] | 37.2
O=C1CCCC(=O)C1C(=O)c1ccc(C(F)(F)F)cc1[N+](=O)[O-] [PCM-0216128] | -10
Cn1c(O)c(C2=c3ccccc3=NC2=O)c2ccccc21 [PCM-0216129] | -17
COc1cc2ncnc(Nc3ccc(F)c(Cl)c3)c2cc1O [PCM-0216130] | 5.4
O=C(CCCCc1ccc2c(c1)OCO2)N1CCCCC1 [PCM-0216131] | -17.8
COc1ccc(C=O)c(O)c1 [PCM-0216133] | 5.4
